# Reference: patent US20260232660A1 (TARIS Biomedical LLC, priority 2023, published 2026)
# Where two headings read alike, the source gives them in different places. Marks after values point to notes of the source that are not given here.
# What was measured:
# [1] = rat, in vivo
# Source text: Rat bladders (5 groups of rats, n=3/group) were surgically catheterized under anesthesia and the catheter was externalized, tunneled subcutaneously, and connected to a vascular access harness (VAH) in the neck. Rats were transferred to individual metabolic cages with free access to food and water during the 1-week post-surgery recovery period. […] Plasma and bladder samples were collected at all time points.
# [2] = first 6 hours
# Experimental: Solution formulations were prepared at various strengths in order to administer 0.5 mL volume to each rat bladder to dose 2, 6, and 18 mg/kg. Corresponding doses in nominal amount of drug were 0.5, 1.5, and 4.5 mg, respectively. After 1 hour of post-installation, rats were transferred to metabolic cages for collection of samples for PK determination. […] At each blood sampling time point, bladder samples were taken from each rat for drug analysis. In addition, bladders collected at 96 hours in the 18 mg/kg dose (high-dose) group were microscopically evaluated. Urine collections were limited to initial 0-6 hours post dose from all rats.
# [3] = test system: orthotopic UM-UC-1 bladder tumors; assay: Continuous bladder perfusion, orthotopic UM-UC-1 bladder cancer model; format: in vivo; conditions: 5 days perfusion; p<0.01 at 0.5, p<0.001 at 1.0 and 5 μg/mL nominal urine concentrations
# Experimental: Perfusion studies: The bladders of the study animals were cannulated on Day 1 and the animals were allowed to recover for 3 days. On Day 5, UM-UC-1 cells (2×10^6 cells) were injected into the lateral wall of each bladder. […] Based on the in vitro results, target urine concentrations of 0.5, 1.0, and 5.0 μg/mL were used in the perfusion experiments. Body weight, daily urine production, and daily water consumption were recorded. At necropsy, a plasma sample, bladder photographs, and bladder weight measurements were recorded.
# The percent reduction in relative tumor weight between the control group and the drug perfusion groups was determined as an initial measure of efficacy.
# [4] = test system: orthotopic RT-112 bladder tumor
# in vivo = conditions: female, Domestic Yorkshire Crossbred, pig, urine, other: continuous intravesical infusion, 0.22 mg/kg/day
# Source text: On Day ~7 a catheter was surgically placed in the bladder of each animal. The distal end of the catheter was anchored to a subcutaneous site and attached to a vascular access port (VAP). The port was secured, and the animals were allowed to recover. Each animal was subsequently fitted with a portable infusion pump that was attached to the bladder catheter via the VAP. […] All excreted urine was collected in 24-hour intervals through Day 6 or 8. Blood samples were collected daily on study Days 1 to 8. Bladder tissue samples were collected from each animal at necropsy.
smiles,measurement,setting,value
"COc1cc(OC)cc(N(CCNC(C)C)c2ccc3ncc(-c4cnn(C)c4)nc3c2)c1 [erdafitinib, N-(3,5-dimethoxyphenyl)-N′-(1-methylethyl)-N-[3-(1-methyl-1H-pyrazol-4-yl)quinoxalin-6-yl]ethane-1,2-diamine]",C72 h,"[1]; female, Sprague-Dawley, 72 h","2,420^a ng/mL"
same,C96 h,[1],BQL
same,C120 h,[1],BQL
same,Percentage of compound eliminated as unchanged drug in the urine,[2]; 2 mg/kg intravesical,23.5%
same,Percentage of compound eliminated as unchanged drug in the urine,[2]; 6 mg/kg intravesical,19%
same,Percentage of compound eliminated as unchanged drug in the urine,[2]; 18 mg/kg intravesical,50.3%
same,Bladder weight (tumor growth) vs vehicle control,[3],significant dose-related decrease in bladder weight
same,Bladder weight decrease vs vehicle control,"[4]; 1.0 μg/mL perfusate concentration, p<0.05",significant bladder weight reduction
same,"Body weight loss, maximum mean value","[4]; erdafitinib-treated group, Day 11",up to −3%
same,concentration at 8 day,in vivo,1270 ng/mL
